Test results from patent US9365522B2, “Pyrazole amide derivative” (AMGEN INC., priority 2015, dated 2016).

Biological target: T1, human RORγ-LBD (Homo sapiens, UniProt P51449)
T1 construct: made in house; host or cells: E. coli (BL-21)
T1 sequence (P51449 262-518): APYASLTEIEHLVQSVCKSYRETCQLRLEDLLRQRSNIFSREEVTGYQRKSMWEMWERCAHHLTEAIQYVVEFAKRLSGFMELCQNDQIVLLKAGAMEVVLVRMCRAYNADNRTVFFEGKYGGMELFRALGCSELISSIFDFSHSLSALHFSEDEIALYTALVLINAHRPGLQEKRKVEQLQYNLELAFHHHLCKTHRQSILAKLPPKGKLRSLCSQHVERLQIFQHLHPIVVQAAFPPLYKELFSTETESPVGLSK
Experiment: ROR gamma coactivator peptide recruitment Alphascreen assay (RORγ-LBD binding to GRIP1 coactivator peptide)
Type: biochemical
Settings: 5 nM human RORγ-LBD, 30 nM 7-β-hydroxycholesterol, 50 nM biotinylated GRIP1 coactivator peptide, overnight incubation at room temperature; read-out: result (pIC50, RORγ coactivator peptide recruitment Alphascreen assay) (converted)
How it was run: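 Alphascreen proximity read-out after overnight room-temperature incubation, yielding pIC50 from 1-in-2 compound series (2.5% DMSO final). Mixture: 50 nM biotin-GRIP1 peptide, 30 nM 7-β-hydroxycholesterol agonist, 5 nM recombinant 6×His:Flag human RORγ-LBD (aa 262-518), 50 mM HEPES pH 7.4.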

SMILES	IC50
COc1cc(Cl)c(C(=O)CN(CC2CC(C)(C)C2)C(=O)c2cnn([C@H]3CC[C@H](C(=O)O)CC3)c2C(F)(F)F)c(Cl)c1 [Example 580, trans-4-(4-((2-(2,6-dichloro-4-methoxyphenyl)-2-oxoethyl)((3,3-dimethylcyclobutyl)methyl)carbamoyl)-5-(trifluoromethyl)-1H-pyrazol-1-yl)cyclohexanecarboxylic acid]	5.01 nM
COc1cc(Cl)c(C(=O)CN(CC2CC(C)(C)C2)C(=O)c2cnn([C@H]3CC[C@](C)(C(=O)O)CC3)c2C(F)(F)F)c(Cl)c1 [Example 581]	3.47 nM
C[C@]1(C(=O)O)CC[C@H](n2ncc(C(=O)N3CC4(CCCC4)C[C@@H]3Cc3c(Cl)cncc3Cl)c2C(F)(F)F)CC1 [Example 582, trans-4-(4-(((3R)-3-((3,5-dichloro-4-pyridinyl)methyl)-2-azaspiro[4.4]non-2-yl)carbonyl)-5-(trifluoromethyl)-1H-pyrazol-1-yl)-1-methylcyclohexanecarboxylic acid]	22.9 nM
Cc1cc(Cl)c(C(=O)CN(CC2CC3(CC3)C2)C(=O)c2cnn([C@H]3CC[C@](C)(C(=O)O)CC3)c2C(F)(F)F)c(Cl)c1 [Example 583, trans-4-(4-((2-(2,6-dichloro-4-methylphenyl)-2-oxoethyl)(spiro[2.3]hex-5-ylmethyl)carbamoyl)-5-(trifluoromethyl)-1H-pyrazol-1-yl)-1-methylcyclohexanecarboxylic acid]	2.4 nM
COc1cc(Cl)c(C(=O)CN(CC2(F)CCCC2)C(=O)c2cnn([C@H]3CC[C@](C)(C(=O)O)CC3)c2C(F)(F)F)c(Cl)c1 [Example 584, trans-4-(4-((2-(2,6-dichloro-4-methoxyphenyl)-2-oxoethyl)((1-fluorocyclopentyl)methyl)carbamoyl)-5-(trifluoromethyl)-1H-pyrazol-1-yl)-1-methylcyclohexanecarboxylic acid]	5.75 nM
CC1(C)CC(CN(CC(=O)c2ccccc2Br)C(=O)c2cnn([C@H]3CC[C@@H](C(=O)O)CC3)c2C(F)(F)F)C1 [Example 585, cis-4-(4-((2-(2-bromophenyl)-2-oxoethyl)((3,3-dimethylcyclobutyl)methyl)carbamoyl)-5-(trifluoromethyl)-1H-pyrazol-1-yl)cyclohexanecarboxylic acid]	69.2 nM
CC1(C)CC(N(CC(=O)c2c(Cl)cncc2Cl)C(=O)c2cnn([C@H]3CC[C@](C)(C(=O)O)CC3)c2C(F)(F)F)C1 [Example 587, trans-4-(4-((2-(3,5-dichloro-4-pyridinyl)-2-oxoethyl)(3,3-dimethylcyclobutyl)carbamoyl)-5-(trifluoromethyl)-1H-pyrazol-1-yl)-1-methylcyclohexanecarboxylic acid]	67.6 nM
CC1(CN(CC(=O)c2c(Cl)cncc2Cl)C(=O)c2cnn([C@H]3CC[C@](C)(C(=O)O)CC3)c2C(F)(F)F)CCCCC1 [Example 588, trans-4-(4-((2-(3,5-dichloro-4-pyridinyl)-2-oxoethyl)((1-methylcyclohexyl)methyl)carbamoyl)-5-(trifluoromethyl)-1H-pyrazol-1-yl)-1-methylcyclohexanecarboxylic acid]	3.31 nM
CC1(C)CC(CN(CC(=O)c2ccccc2Br)C(=O)c2cnn([C@H]3CC[C@](C)(C(=O)O)CC3)c2C(F)(F)F)C1 [Example 589, trans-4-(4-((2-(2-bromophenyl)-2-oxoethyl)((3,3-dimethylcyclobutyl)methyl)carbamoyl)-5-(trifluoromethyl)-1H-pyrazol-1-yl)-1-methylcyclohexanecarboxylic acid]	42.7 nM
COc1cc(Cl)c(C(=O)CN(CC2(F)CCCC2)C(=O)c2cnn([C@H]3CC[C@@H](C(=O)O)CC3)c2C(F)(F)F)c(Cl)c1 [Example 590, cis-4-(4-((2-(2,6-dichloro-4-methoxyphenyl)-2-oxoethyl)((1-fluorocyclopentyl)methyl)carbamoyl)-5-(trifluoromethyl)-1H-pyrazol-1-yl)cyclohexanecarboxylic acid]	174 nM
CC1(CN(CCc2c(Cl)cncc2Cl)C(=O)c2cnn([C@H]3CC[C@](C)(C(=O)O)CC3)c2C(F)(F)F)CCCC1 [Example 591, trans-4-(4-((2-(3,5-dichloro-4-pyridinyl)ethyl)((1-methylcyclopentyl)methyl)carbamoyl)-5-(trifluoromethyl)-1H-pyrazol-1-yl)-1-methylcyclohexanecarboxylic acid]	2.09 nM
C[C@]1(C(=O)O)CC[C@H](n2ncc(C(=O)N(CC(=O)c3c(Cl)cncc3Cl)CC3CCCC3)c2C(F)(F)F)CC1 [Example 592, trans-4-(4-((cyclopentylmethyl)(2-(3,5-dichloro-4-pyridinyl)-2-oxoethyl)carbamoyl)-5-(trifluoromethyl)-1H-pyrazol-1-yl)-1-methylcyclohexanecarboxylic acid]	6.76 nM
C[C@]1(C(=O)O)CC[C@H](n2ncc(C(=O)N(CC(=O)c3c(Cl)cncc3Cl)CC3(F)CC3)c2C(F)(F)F)CC1 [Example 593, trans-4-(4-((2-(3,5-dichloro-4-pyridinyl)-2-oxoethyl)((1-fluorocyclopropyl)methyl)carbamoyl)-5-(trifluoromethyl)-1H-pyrazol-1-yl)-1-methylcyclohexanecarboxylic acid]	33.1 nM
C[C@]1(C(=O)O)CC[C@H](n2ncc(C(=O)N(CC(=O)c3c(Cl)cncc3Cl)CC3CC(F)(F)C3)c2C(F)(F)F)CC1 [Example 594, trans-4-(4-((2-(3,5-dichloro-4-pyridinyl)-2-oxoethyl)((3,3-difluorocyclobutyl)methyl)carbamoyl)-5-(trifluoromethyl)-1H-pyrazol-1-yl)-1-methylcyclohexanecarboxylic acid]	74.1 nM
CC1(C)CC(CN(CC(=O)c2c(F)cccc2Cl)C(=O)c2cnn([C@H]3CC[C@](C)(C(=O)O)CC3)c2C(F)(F)F)C1 [Example 595, trans-4-(4-((2-(2-chloro-6-fluorophenyl)-2-oxoethyl)((3,3-dimethylcyclobutyl)methyl)carbamoyl)-5-(trifluoromethyl)-1H-pyrazol-1-yl)-1-methylcyclohexanecarboxylic acid]	5.62 nM
CC1(C)CC(CN(CC(=O)c2c(F)cccc2Cl)C(=O)c2cnn([C@H]3CC[C@@H](C(=O)O)CC3)c2C(F)(F)F)C1 [Example 596, cis-4-(4-((2-(2-chloro-6-fluorophenyl)-2-oxoethyl)((3,3-dimethylcyclobutyl)methyl)carbamoyl)-5-(trifluoromethyl)-1H-pyrazol-1-yl)cyclohexanecarboxylic acid]	151 nM
CC1(C)CC(CN(CC(=O)c2c(F)cccc2F)C(=O)c2cnn([C@H]3CC[C@@H](C(=O)O)CC3)c2C(F)(F)F)C1 [Example 597, cis-4-(4-((2-(2,6-difluorophenyl)-2-oxoethyl)((3,3-dimethylcyclobutyl)methyl)carbamoyl)-5-(trifluoromethyl)-1H-pyrazol-1-yl)cyclohexanecarboxylic acid]	2400 nM
CC1(C)CC(CN(CC(=O)c2c(F)cccc2F)C(=O)c2cnn([C@H]3CC[C@](C)(C(=O)O)CC3)c2C(F)(F)F)C1 [Example 598, trans-4-(4-((2-(2,6-difluorophenyl)-2-oxoethyl)((3,3-dimethylcyclobutyl)methyl)carbamoyl)-5-(trifluoromethyl)-1H-pyrazol-1-yl)-1-methylcyclohexanecarboxylic acid]	115 nM
CC1(C)CC(N(CC(=O)c2c(Cl)cccc2Cl)C(=O)c2cnn([C@H]3CC[C@](C)(C(=O)O)CC3)c2C(F)(F)F)C1 [Example 599, trans-4-(4-((2-(2,6-dichlorophenyl)-2-oxoethyl)(3,3-dimethylcyclobutyl)carbamoyl)-5-(trifluoromethyl)-1H-pyrazol-1-yl)-1-methylcyclohexanecarboxylic acid]	13.8 nM
CC1(C)CC(N(CC(=O)c2c(Cl)cccc2Cl)C(=O)c2cnn([C@H]3CC[C@@H](C(=O)O)CC3)c2C(F)(F)F)C1 [Example 600, cis-4-(4-((2-(2,6-dichlorophenyl)-2-oxoethyl)(3,3-dimethylcyclobutyl)carbamoyl)-5-(trifluoromethyl)-1H-pyrazol-1-yl)cyclohexanecarboxylic acid]	794 nM
CC1(C)C[C@H](CN(CC(=O)c2c(Cl)cccc2Cl)C(=O)c2cnn([C@H]3CC[C@](C)(C(=O)O)CC3)c2C(F)(F)F)O1 [Example 601, trans-4-(4-((2-(2,6-dichlorophenyl)-2-oxoethyl)(((2R)-4,4-dimethyl-2-oxetanyl)methyl)carbamoyl)-5-(trifluoromethyl)-1H-pyrazol-1-yl)-1-methylcyclohexanecarboxylic acid]	42.7 nM
COc1cccc(F)c1C(=O)CN(CC1CC(C)(C)C1)C(=O)c1cnn([C@H]2CC[C@](C)(C(=O)O)CC2)c1C(F)(F)F [Example 602, trans-4-(4-(((3,3-dimethylcyclobutyl)methyl)(2-(2-fluoro-6-methoxyphenyl)-2-oxoethyl)carbamoyl)-5-(trifluoromethyl)-1H-pyrazol-1-yl)-1-methylcyclohexanecarboxylic acid]	174 nM
CC1(C)CC(CN(CC(=O)c2ccccc2C#N)C(=O)c2cnn([C@H]3CC[C@](C)(C(=O)O)CC3)c2C(F)(F)F)C1 [Example 604, trans-4-(4-((2-(2-cyanophenyl)-2-oxoethyl)((3,3-dimethylcyclobutyl)methyl)carbamoyl)-5-(trifluoromethyl)-1H-pyrazol-1-yl)-1-methylcyclohexanecarboxylic acid]	6610 nM
